{
  "source": "paper PMC10209615",
  "about": "“Pharmacological inhibition of LSD1 suppresses growth of hepatocellular carcinoma by inducing GADD45B” (MedComm, 2023)",
  "key": {"PDX3 tumors": {"tested_on": "PDX3 tumors", "assay": "Third PDX model (PDX3), ZY0511 and DTP3", "assay_type": "in vivo, NOD/SCID mice", "method": "(§1) For CDX models, HCC cells (HepG2, Hep3B) were harvested, and cells suspension (5 × 10^6 − 1 × 10^7 cells per mouse) were subcutaneously injected into the hind flank region of nude mice. For PDX models, fresh HCC tissues obtained from West China Hospital were minced into 2–5 mm^3 sizes to build the PDX models. The HCC tissue fragments were transplanted into the hind flank region of NOD/SCID mice within 2 h. Once the tumor volume reached ∼2 cm^3, the PDX models were expanded.\n(§2) When the tumor volume reached approximately 100 mm^3, CDX & PDX tumor‐bearing mice were randomly divided into groups: (1) blank solvent; (2) ZY0511 50 mg/kg per day, i.p.; (3) ZY0511 100 mg/kg per day, i.p.; and (4) combinatorial treatment of ZY0511 50 mg/kg with DTP3 30 mg/kg, per day, i.p. Tumor sizes and animal body weights were monitored every 3 days, and tumor volumes were calculated as 0.5 × length × width^2. TGI rate was calculated as (1 − tumor volume of treated group/tumor volume of control group) x 100%.\nBoth procedures were carried out as previously described.[21] In brief, samples were fixated in 4% paraformaldehyde and consequently paraffin‐coated. Thin tissue segments (4 μm) were prepared, and H&E staining was performed. […]"}, "LSD1 knockout JHH7 cells": {"tested_on": "LSD1 knockout JHH7 cells", "assay": "Proliferation of LSD1 knockout JHH7 cells after ZY0511", "assay_type": "cell-based, human", "details": "ZY0511 treatment for 96 h", "method": "Cell viability was determined using Cell Counting Kit‐8 (CCK8; Dojindo) or 3‐(4, 5‐dimethylthiazol‐2‐yl)‐2,5‐diphenyltetrazoliumbromide (MTT, Sigma Aldrich) assay. […] Consequently, cell viability was determined using a microplate reader (Thermo Fisher) at 450 nm for CCK8 assay, or 570 nm for MTT assay, at different time points. The IC50 values and CI values were analyzed and calculated using GraphPad Prism 8 and CompuSyn (version 1.0; http://www.combosyn.com), respectively."}, "HepG2 xenograft": {"tested_on": "HepG2 xenograft", "assay": "Cell‐derived xenograft (CDX) model", "assay_type": "in vivo, nude mice", "details": "100 mg/kg i.p., 18 days", "method": "as §1, §2"}, "Hep3B xenograft": {"tested_on": "Hep3B xenograft", "assay": "Cell‐derived xenograft (CDX) model", "assay_type": "in vivo, nude mice", "details": "100 mg/kg i.p., 18 days", "method": "as §1, §2"}, "Hep3B": {"tested_on": "Hep3B", "assay": "Apoptosis analysis (Annexin V, flow cytometry)", "assay_type": "cell-based, human", "details": "48 h", "method": "(§3) Cells were fixed using 70% ethanol and stained with a Cell Cycle Detection Kit (KeyGEN). For apoptosis analysis, cells were exposed to ZY0511 alone or in combination with DTP3 for 48 h. Cells were harvested and stained with PE Annexin V Apoptosis Detection Kit (BD). The cell cycle or apoptosis induction was detected by using a flow cytometer (Agilent NovoCyte). Results were assessed by NovoExpress software (Agilent NovoCyte)."}, "HepG2": {"tested_on": "HepG2", "assay": "Apoptosis analysis (Annexin V, flow cytometry)", "assay_type": "cell-based, human", "details": "HepG2, 48 h", "method": "as §3"}, "[1]": {"tested_on": "104 cancer‐related kinases", "assay": "Kinase activity detection (Eurofins), whole panel", "assay_type": "biochemical", "details": "ZY0511 1 μM", "method": "The activity of ZY0511 against 104 cancer‐related kinases was carried out by Eurofins Pharma Discovery Services (Celle Lévescault, France)."}},
  "data": [
    {"smiles": "O=C(N/N=C1\\CCc2c(Cl)ccc(O)c21)c1cccc(S(=O)(=O)N2CCOCC2)c1", "note": "[ZY0511, (E)‐N'‐(2, 3‐dihydro‐1H‐inden‐1‐ylidene) benzohydrazides]", "values": [
      {"measurement": "TGI", "setting": "PDX3 tumors; PDX3, ZY0511 50 mg/kg i.p., 15 days", "result": 32.79, "unit": "%"},
      {"measurement": "mice body weight", "setting": "PDX3 tumors; PDX3, ZY0511 and/or DTP3, 15 days", "result": "no change"},
      {"measurement": "decrease of sensitivity of JHH7 cells to ZY0511 by LSD1 knockout", "setting": "LSD1 knockout JHH7 cells", "result": 20, "unit": "%"},
      {"measurement": "tumor growth inhibition (TGI)", "setting": "HepG2 xenograft", "result": 58.29, "unit": "%"},
      {"measurement": "tumor growth inhibition (TGI)", "setting": "Hep3B xenograft", "result": 52.70, "unit": "%"},
      {"measurement": "apoptotic rate", "setting": "Hep3B", "result": 6.98, "unit": "%"},
      {"measurement": "apoptotic rate", "setting": "HepG2", "result": 6.49, "unit": "%"},
      {"measurement": "effect against other kinases, including FGFR, VEGFR, and PDGFR", "setting": "[1]", "result": "no effect"}
    ]}
  ]
}
